Experiments:
Assay type in all cases: in vivo
rice crop [1] = assay: Dead heart count in rice crop; conditions: GR, g a.i./ha: Flupyrimin 150, Cartap 1000, Cartap + EMA 581, Fipronil 60; for Dead hearts (count) 7 DAA: 7 days after application; for Dead hearts (count) 14 DAA: 14 days after application; for Dead hearts (count) 21 DAA: 21 days after application; for Dead hearts (count) 28 DAA: 28 days after application; for Dead hearts (count) Pre-count: pre-count before application
Source text: (§1) Injury in plants is often first noticed when the youngest partially unfurled leaf of the plant begins to whiter and die, resulting in a condition called dead heart. Dead hearts can be caused by any stem borer. Typical bore holes will be seen on the stem. Usually, a single larva is seen inside the stem. It remains inside the stem and feeds on the internal contents. The shoot of the affected plant can be pulled off easily, a symptom known as dead heart. At maturity, the grains become chaffy, which is known as white ear and eventually the whole plant finally dies.
(§2) The phytotonic effect of flupyrimin in rice crop in terms of the dead heart count, number of ears, productive tillers/hill and the hill stability were determined.
The observations were made at 7DAA, 14 DAA, 21 DAA and 28 DAA (days after application).

rice crop [2] = assay: White ear count in rice crop; conditions: GR, g a.i./ha: Flupyrimin 150, Cartap 1000, Cartap + EMA 581, Fipronil 60
Source text: as §1, §2

rice crop [3] = assay: Number of tillers and productive tillers per hill in rice crop; conditions: for No. of tillers/hill at 45 DAA / No. of productive tillers/hill at heading: rice, GR, g a.i./ha: Flupyrimin 150, Cartap 1000, Cartap + EMA 581, Fipronil 60
[4] = system: Nilaparvata lugens BPH (Brown plant hopper); assay: Brown plant hopper infestation after application; conditions: up-to 45 Days After application of composition comprising flupyrimin and/or a salt thereof
rice = assay: Hill stability test (tiller sturdiness, girth) in rice; conditions: flupyrimin composition (2% GR)
Procedure: The hill stability test was performed to determine the tiller strength of the hill. Accordingly, rice was subjected to flupyrimin treatment at 23 days after transplanting (DAT) and observations were taken at 20 DAA (days after application).
Hill stability is an important plant growth feature, as it protects the crop from lodging. It becomes especially important in tall varieties and in areas prone to high winds, cyclones, heavy rains etc. Due to hill stability, the plant is able to sustain the natural forces. Hill stability is also important in case of high pest and disease pressure, which makes the plant weak and loses the tiller strength.

mustard = assay: Plant height, root length and plant vigor in mustard after seed treatment; conditions: 500 g/L FS
Procedure: (§3) The present inventors have observed the phytotonic effect of flupyrimin in mustard seeds by determining the % germination, plant height, root length (cm) and plant vigor. The seeds were treated with 500 g/L flupyrimin flowable concentrate (FS) formulation. The observations were made at 30 DAS and 45 DAS (days after seeding).

wheat [5] = assay: Plant height, root length, tillers and plant vigor in wheat after seed treatment
Procedure: as §3, with “wheat” for “mustard seeds”, “vigor” for “vigor.”

wheat [6] = assay: Yield and test weight in wheat after seed treatment; set-up: Test weight (1000 grain weight): unit not given here
wheat [7] = assay: % germination of wheat seed after seed treatment; conditions: seed treatment 500 g/L FS
Procedure: The present inventors have observed the phytotonic effect of flupyrimin in wheat by determining the % germination, plant height, root length (cm) and plant vigor The seeds were treated with 500 g/L flupyrimin flowable concentrate (FS) formulation. […]

[8] = 1.2 g AI/kg of seed (2.4 ml/kg)
[9] = 2.0 g AI/kg of seed (4.0 ml/kg)

SMILES: CN(C)C(CSC(N)=O)CSC(N)=O [Cartap]
- Dead hearts (count) 7 DAA (rice crop [1]): 0.21 count
- Dead hearts (count) 14 DAA (rice crop [1]): 1.54 count
- Dead hearts (count) 21 DAA (rice crop [1]): 3.08 count
- Dead hearts (count) 28 DAA (rice crop [1]): 2.17 count
- Dead hearts (count) Pre-count (rice crop [1]): 0.00 count
- White ear/hill at heading (rice crop [2]): 2.33
- No. of tillers/hill at 45 DAA (rice crop [3]): 18.07
- No. of productive tillers/hill at heading (rice crop [3]): 13.77

SMILES: N#Cc1nn(-c2c(Cl)cc(C(F)(F)F)cc2Cl)c(N)c1[S+]([O-])C(F)(F)F (centres unmarked) [Fipronil]
- Dead hearts (count) 7 DAA (rice crop [1]): 0.00 count
- Dead hearts (count) 14 DAA (rice crop [1]): 0.40 count
- Dead hearts (count) 21 DAA (rice crop [1]): 2.19 count
- Dead hearts (count) 28 DAA (rice crop [1]): 1.24 count
- Dead hearts (count) Pre-count (rice crop [1]): 0.00 count
- White ear/hill at heading (rice crop [2]): 1.27
- No. of tillers/hill at 45 DAA (rice crop [3]): 19
- No. of productive tillers/hill at heading (rice crop [3]): 15.63

SMILES: O=C(/N=c1\ccccn1Cc1ccc(Cl)nc1)C(F)(F)F [Flupyrimin, N-[(E)-1-(6-chloro-3-pyridinylmethyl)pyridin-2 (1H)-ylidene]-2,2,2-trifluoroacetamide]
- Nilaparvata lugens BPH infestation [4]: no Nilaparvata lugens BPH (Brown plant hopper) infestation is found
- Dead hearts (count) 7 DAA (rice crop [1]): 0.00 count
- Dead hearts (count) 14 DAA (rice crop [1]): 0.00 count
- Dead hearts (count) 21 DAA (rice crop [1]): 0.04 count
- Dead hearts (count) 28 DAA (rice crop [1]): 0.01 count
- Dead hearts (count) Pre-count (rice crop [1]): 0.00 count
- White ear/hill at heading (rice crop [2]): 0.17
- Girth of tillers compared to untreated rice (rice): almost twice the girth
- Plant Height (cm) 30 DAS (mustard; 4 g AI/kg of seed (8 ml/kg)): 21.7 cm
- Plant Vigor (0-5 Index scale) 30 DAS (mustard; 4 g AI/kg of seed (8 ml/kg)): 5.0 0-5 Index scale
- Root length (cm) 30 DAS (mustard; 4 g AI/kg of seed (8 ml/kg)): 18.2 cm
- Plant Height (cm) 45 DAS (mustard; 4 g AI/kg of seed (8 ml/kg)): 93.2 cm
- Plant Vigor (0-5 Index scale) 45 DAS (mustard; 4 g AI/kg of seed (8 ml/kg)): 5.0 0-5 Index scale
- Root length (cm) 45 DAS (mustard; 4 g AI/kg of seed (8 ml/kg)): 20.8 cm
- Plant Height (cm) 30 DAS (mustard; 6 g AI/kg of seed (12 ml/kg)): 22.8 cm
- Plant Vigor (0-5 Index scale) 30 DAS (mustard; 6 g AI/kg of seed (12 ml/kg)): 5.0 0-5 Index scale
- Root length (cm) 30 DAS (mustard; 6 g AI/kg of seed (12 ml/kg)): 18.3 cm
- Plant Height (cm) 45 DAS (mustard; 6 g AI/kg of seed (12 ml/kg)): 95.6 cm
- Plant Vigor (0-5 Index scale) 45 DAS (mustard; 6 g AI/kg of seed (12 ml/kg)): 5.0 0-5 Index scale
- Root length (cm) 45 DAS (mustard; 6 g AI/kg of seed (12 ml/kg)): 21.1 cm
- No. of tillers/plant 30 DAS (wheat [5]; [8]): 5.8
- Plant Height (cm) 30 DAS (wheat [5]; [8]): 42.4 cm
- Plant Vigor (0-5 Index scale) 30 DAS (wheat [5]; [8]): 5.0 0-5 Index scale
- Root length (cm) 30 DAS (wheat [5]; [8]): 11.5 cm
- No. of tillers/plant 45 DAS (wheat [5]; [8]): 6.4
- Plant Height (cm) 45 DAS (wheat [5]; [8]): 57.9 cm
- Plant Vigor (0-5 Index scale) 45 DAS (wheat [5]; [8]): 5.0 0-5 Index scale
- Root length (cm) 45 DAS (wheat [5]; [8]): 12.3 cm
- No. of tillers/plant 30 DAS (wheat [5]; [9]): 5.8
- Plant Height (cm) 30 DAS (wheat [5]; [9]): 43.3 cm
- Plant Vigor (0-5 Index scale) 30 DAS (wheat [5]; [9]): 5.0 0-5 Index scale
- Root length (cm) 30 DAS (wheat [5]; [9]): 11.8 cm
- No. of tillers/plant 45 DAS (wheat [5]; [9]): 6.5
- Plant Height (cm) 45 DAS (wheat [5]; [9]): 58.1 cm
- Plant Vigor (0-5 Index scale) 45 DAS (wheat [5]; [9]): 5.0 0-5 Index scale
- Root length (cm) 45 DAS (wheat [5]; [9]): 12.7 cm
- Test weight (1000 grain weight) (wheat [6]; [8]): 55.3
- Yield (Qt/ha) (wheat [6]; [8]): 37.4 Qt/ha
- Test weight (1000 grain weight) (wheat [6]; [9]): 56.5
- Yield (Qt/ha) (wheat [6]; [9]): 37.8 Qt/ha
- Greater number of tillers against the market standards (average) (rice crop [3]; rice crop, granular formulation): 2-3
- No. of tillers/hill at 45 DAA (rice crop [3]): 22.47
- No. of productive tillers/hill at heading (rice crop [3]): 19.63
- % Germination of Wheat Seed 6 DAS (wheat [7]; [8]): 92.0%
- % Germination of Wheat Seed 9 DAS (wheat [7]; [8]): 93.0%
- % Germination of Wheat Seed 12 DAS (wheat [7]; [8]): 95.5%
- % Germination of Wheat Seed 6 DAS (wheat [7]; [9]): 92.0%
- % Germination of Wheat Seed 9 DAS (wheat [7]; [9]): 93.8%
- % Germination of Wheat Seed 12 DAS (wheat [7]; [9]): 96.0%
